Laboratory results as given in patent US20260137687A1, “GTPase INHIBITORS AND USES THEREOF” (The Regents of The University of California, priority 2022, published 2026).

What was measured:
K-Ras(G12R)·GppNHp = target: T1, K-Ras(G12R)·GppNHp (Homo sapiens, UniProt P01116, C118S/C51S/C80L/G12R); test: Intact protein mass spectrometry, covalent modification; assay type: binding; conditions: after 72 h; 50 μM
T1 construct: human K-Ras G12R Cyslight (G12R/C51S/C80L/C118S, aa 1-169); 6xHis tag + TEV cleavage site (N, cleaved yes); made in house; host or cells: E. coli BL21(DE3)
Procedure: Purified K-Ras variants (4 μM final) were incubated with compounds at 50 or 100 μM (1% v/v DMSO final) in 20 mM HEPES pH 7.5, 150 mM NaCl, 1 mM MgCl2 in a total volume of 150 μL. After the noted time, the samples were analyzed by intact protein LC/MS using a Waters Xevo G2-XS system equipped with an Acquity UPLC BEH C4 1.7 μm column. The mobile phase was a linear gradient of 5-95% acetonitrile/water+0.05% formic acid. The spectra were processed using QuantLynx, giving the ion counts observed for the most abundant species. For assays conducted under an alternate pH, the HEPES buffer was replaced with one of the following buffers (maintaining 150 mM NaCl and 1 mM MgCl2): 20 mM MES pH 6 or 20 mM Tris pH 9.

K-Ras(G12R)·GDP = target: T2, K-Ras(G12R)·GDP (Homo sapiens, UniProt P01116, G12R); test: Differential scanning fluorimetry; assay type: binding
T2 construct: human K-Ras (G12R, aa 1-169); 6xHis tag + TEV cleavage site (N, cleaved yes); made in house; host or cells: E. coli BL21(DE3)
Procedure: The protein of interest was diluted with SEC Buffer [20 mM HEPES 7.5, 150 mM NaCl, 1 mM MgCl2] to 8 μM. This solution was dispensed into wells of a white 96-well PCR plate in triplicate (25 μL/well). Fluorescence was measured at 0.5° C. temperature intervals every 30 s from 25° C. to 95° C. on a Bio-Rad CFX96 qPCR system using the FRET setting. Each data set was normalized to the highest fluorescence and the normalized fluorescence reading was plotted against temperature in GraphPad Prism 8.0. Tm values were determined as the temperature(s) corresponding to the maximum(ma) of the first derivative of the curve.

[1] = Stability in aqueous buffers; assay type: physicochemical; conditions: over a range of pH
K-Ras(G12R) [2] = target: T3, K-Ras(G12R) (Homo sapiens, UniProt P01116, G12R); test: Sos- or EDTA-mediated nucleotide exchange assay; assay type: biochemical; design: human K-Ras (G12R, aa 1-169); 6xHis tag + TEV cleavage site (N, cleaved yes); made in house; host or cells: E. coli BL21(DE3); conditions: BODIPY-GDP exchanged for unlabeled GDP; compound-bound K-Ras(G12R)
Procedure: This assay was performed as previously reported (38-41) with slight modifications. BODIPY-GDP-loaded K-Ras proteins were prepared freshly as follows. To a 10 μM solution of K-Ras(G12R)·GDP or K-Ras(G12R)·GDP·3 in SEC Buffer (1 mL) was added sequentially BODIPY-GDP (5 mM, 40 μL, Thermo Fisher, final concentration 200 μM) and Na-EDTA pH 8.0 (0.5 M, 5 μL, final concentration 2.5 mM). The mixture was incubated at 23° C. for 1 h, and a solution of MgCl2 (1.0 M, 20 μL, […]) was added to the reaction mixture. The protein solution was run through a PD-10 column to remove the excess nucleotide following the manufacturer's protocol. Briefly, sample (˜1.0 mL) and excess buffer (1.5 mL) were loaded onto the column (equilibrated with NucEx Buffer), and desalted protein was eluted with NucEx Buffer (3.5 mL). Desalted protein was diluted 1:1 to a concentration of roughly 1.5 μM in NucEx Buffer. 12 μL of this solution (triplicate for each condition) was added to wells of a black 384-well low-volume assay plate (Corning 4514). […] The plate was immediately placed in a TECAN Spark 20M plate reader, and fluorescence for BODIPY (excitation 488 nm, emission 520 nm) was read every 30 s over 1 h. Fluorescence intensity was normalized to values at time 0 and plotted again time. […]

K-Ras(G12R) [3] = target: T3, K-Ras(G12R); test: Lysate target engagement assay (anti-Ras immunoblot); assay type: binding; design: pMSCV-Puro plasmids containing full length human KRAS genes (G12R); expressed in transfected cells; host or cells: Ba/F3 (mouse) transduced with pMSCV-Puro KRAS(G12R); lysate
Procedure: For co-treatment with recombinant K-Ras(G12R), Ba/F3(G12R) cells were lysed with NP-40 buffer and adjusted to 1.5 mg/mL. A 0.1 μM solution of recombinant K-Ras(G12R) was prepared in NP-40 buffer. 18 μL of Ba/F3 lysate were added to 4 μL of a 0.5 mM solution of 3 containing 10% DMSO in NP-40 buffer or DMSO as control. 18 μL of recombinant K-Ras(G12R) solution or NP-40 was added and the mixtures were incubated for 16 h at 23° C. Subsequently samples were mixed with 5×SDS Loading Dye and heated at 95° C. for 5 min.
Unless otherwise noted, SDS-PAGE was run with Novex 12% Bis-Tris gel (Invitrogen) in MES running buffer (Invitrogen) at 200 V for 60 min following the manufacturer's instructions. Protein bands were transferred onto 0.2-μm nitrocellulose membranes (Bio-Rad) using a wet-tank transfer apparatus (Bio-Rad Criterion Blotter) in 1×TOWBIN buffer with 10% methanol at 75V for 45 min. Membranes were blocked in 5% BSA-TBST for 1 h at 23° C. Primary antibody binding was performed with the indicated antibodies diluted in 5% BSA-TBST at 4° C. for at least 16 h. After washing the membrane three times with TBST (5 min each wash), secondary antibodies (goat anti-rabbit IgG-IRDye 800 and goat anti-mouse IgG-IRDye 680, Li-COR) were added as solutions in 5% skim milk-TBST at the dilutions recommended by the manufacturer. Secondary antibody binding was allowed to proceed for 1 h at 23° C. The membrane was washed three times with TBST (5 min each wash) and imaged on a Li-COR Odyssey fluorescence imager.

## CC(=O)C(O)(O)C(=O)N1[C@@H]2CC[C@H]1CN(c1nc(OCC34CCCN3CCC4)nc3c(F)c(-c4cccc5cccc(Cl)c45)ncc13)C2 [compound 3, 1-((1R,5S)-3-(7-(8-chloronaphthalen-1-yl)-8-fluoro-2-((tetrahydro-1H-pyrrolizin-7a(5H)-yl)methoxy)pyrido[4,3-d]pyrimidin-4-yl)-3,8-diazabicyclo[3.2.1]octan-8-yl)-2,2-dihydroxybutane-1,3-dione]
K-Ras(G12R)·GppNHp
  modification of K-Ras(G12R)·GppNHp: < 5%
K-Ras(G12R)·GDP
  increase of melting temperature of K-Ras(G12R)·GDP·3 adduct vs unmodified K-Ras(G12R)·GDP: 9.1 °C
[1]
  stability in aqueous buffers: stable
K-Ras(G12R) [2]
  Sos-mediated nucleotide exchange: inhibited
  rate of EDTA-mediated nucleotide exchange: significantly reduced
K-Ras(G12R) [3]; after 16 h of incubation
  modification of exogenous recombinant K-Ras(G12R)·GDP added to lysate: complete modification
K-Ras(G12R) [3]; lysate not pre-loaded with GDP
  modification of endogenous K-Ras(G12R) in BaF3/K-Ras(G12R) lysates: did not detect any modification
K-Ras(G12R) [3]; lysates pre-loaded with excess GDP
  modification of endogenous K-Ras(G12R) in BaF3/K-Ras(G12R) lysates: covalent modification
